How the values were obtained:
[1] = tested on: Cdc2 Tyr15-phosphorylation (pY15-Cdc2); test: WEE1 cell cycle inhibitory activity in cells: pY15-Cdc2 immunoblot; assay type: cell-based, human; conditions: LNCaP cells, 3 uM, 48 hours (FIG. 2A)
Text: FIGS. 2A-2B show identification of 3 distinct types of inhibitors. […] In addition, the lysates were also subjected to by immunoblotting with […]-Cdc2 or actin antibodies (middle and bottom panels). […] The number vehicle treated cells were used as control and percent of surviving cells were plotted. […] In addition, the lysates were also subjected to immunoblotting with actin antibodies (bottom panel). Identification of compounds with WEE1 epigenetic inhibitory role: 14 'hits' that were identified in the screen are shown in FIG. 1. These compounds were further tested for their ability to inhibit WEE1 epigenetic activity. Prostate cancer derived LNCaP cells were treated with 3 uM of compounds for 48 hours. […] Lysates were also assessed for WEE1 cell cycle inhibitory activity by determining Cdc2 Tyr15-phosphorylation ([…]-Cdc2). […] These are named as 'Cell Cycle' inhibitors. […] These compounds are the 'Epigenetic' inhibitors.

[2] = tested on: histone H2B Tyr37-phopshorylation (pY37-H2B); test: WEE1 epigenetic activity in cells: pY37-H2B immunoprecipitation/immunoblot; assay type: cell-based, human; conditions: LNCaP cells
Text: FIGS. 2A-2B show identification of 3 distinct types of inhibitors. […] In addition, the lysates were also subjected to by immunoblotting with pY15-Cdc2 or actin antibodies (middle and bottom panels). […] The number vehicle treated cells were used as control and percent of surviving cells were plotted.
FIGS. 4A-4B show structures of ‘hits’ identified in WEE1 epigenetic inhibitor screen. […] The reaction mix was then subjected to immunoprecipitated with WEE1 antibodies, followed by immunoblotting with pTyr antibodies. […] In addition, the lysates were also subjected to immunoblotting with actin antibodies (bottom panel).
FIGS. 7A-7C show identification of WEIN-159 as a potent WEE1 epigenetic inhibitor. […] In addition, lysates were immunoprecipitated with pY37-H2B antibodies, followed by immunoblotting with H2B antibodies (middle panel). […] The lysates were also subjected to immunoblotting with pY15-Cdc2 antibodies and were immunoprecipitated with pY37-H2B antibodies, followed by immunoblotting with H2B antibodies (middle panels). In addition, the lysates were also subjected to immunoblotting with H2B antibodies (bottom panel). […] The lysates were also subjected to immunoblotting with pY15-Cdc2 antibodies and were immunoprecipitated with pY37-H2B antibodies, followed by immunoblotting with H2B antibodies (middle panels). In addition, the lysates were also subjected to immunoblotting with actin antibodies (bottom panel).
Identification of compounds with WEE1 epigenetic inhibitory role: 14 ‘hits’ that were identified in the screen are shown in FIG. 1. These compounds were further tested for their ability to inhibit WEE1 epigenetic activity. Prostate cancer derived LNCaP cells were treated with 3 uM of compounds for 48 hours. Cells were harvested, lysates were prepared, and WEE1 epigenetic activity was detected by determining histone H2B Tyr37-phopshorylation (pY37-H2B). Lysates were also assessed for WEE1 cell cycle inhibitory activity by determining Cdc2 Tyr15-phosphorylation (pY15-Cdc2). […] These are named as ‘Cell Cycle’ inhibitors. […] These compounds are the ‘Epigenetic’ inhibitors.

Nc1ccc(NC(=O)c2ccc(C(=O)Nc3ccc(N)cc3)cc2)cc1 [SG5-061, N^1,N^4-bis(4-aminophenyl)terephthalamide]
Cdc2 Tyr15-phosphorylation (pY15-Cdc2) [1]: did not affect Cdc2 Tyr15-phosphotylation
H2B Tyr37-phosphorylation (pY37-H2B) ([2]; 3 uM, 48 hours (FIG. 2A)): specifically suppressed H2B Tyr37-phosphotylation
H2B Tyr37-phosphorylation ([2]; 10 μM, 12 hours (FIG. 4B)): complete loss of H2B Tyr37-phosphorylation

— patent publication US11987568B2, “Allosteric inhibitor of WEE1 kinase” (H. LEE MOFFITT CANCER CENTER AND RESEARCH INSTITUTE, INC., priority 2018, dated 2024)
